The test system of the series is CCRIS mutagenicity, Ames/micronucleus/aberration tests. Briefly: CCRIS mutagenicity studies.
The mark [1] stands for this setting: Test System: AMES SALMONELLA TYPHIMURIUM, Strain/Indicator: TA98, Metabolic Activation: NONE, Method: STANDARD PLATE.
The mark [2] stands for this setting: Test System: AMES SALMONELLA TYPHIMURIUM, Strain/Indicator: TA100, Metabolic Activation: NONE, Method: STANDARD PLATE.
The mark [3] stands for this setting: Test System: AMES SALMONELLA TYPHIMURIUM, Strain/Indicator: TA98, Metabolic Activation: NONE, Method: PREINCUBATION
[4] abbreviates: Test System: AMES SALMONELLA TYPHIMURIUM, Strain/Indicator: TA100, Metabolic Activation: NONE, Method: PREINCUBATION

The source made the active and inactive calls. How the calls were made is not given here.

`O=C/C=C\C=O`: the mutagenic call runs as follows: (End Point: In vitro micronucleus, Test System: Mouse lymphoma L5178Y cells, Metabolic Activation: None) “active; positive”; (Test System: AMES SALMONELLA TYPHIMURIUM, Strain/Indicator: TA104, Metabolic Activation: NONE, Method: PREINCUBATION) “active; positive”; (Test System: Mouse lymphoma, Strain/Indicator: L5178Y (tk+/tk-), Metabolic Activation: None, Method: Preincubation) “active; positive”.
For `CCC(C)c1ccc(/C=C/c2ccc(N)cc2)cc1` (configuration not stated), the mutagenic call is “inactive; negative” under setting [1]; “active; positive” (Test System: AMES SALMONELLA TYPHIMURIUM, Strain/Indicator: TA98, Metabolic Activation: RAT, LIVER, S-9, AROCLOR, Method: STANDARD PLATE); “inactive; negative” under setting [2]; “active; positive” (Test System: AMES SALMONELLA TYPHIMURIUM, Strain/Indicator: TA100, Metabolic Activation: RAT, LIVER, S-9, AROCLOR, Method: STANDARD PLATE).
On to `N#Cc1cccc(/C=C/c2ccc([N+](=O)[O-])cc2)c1`, for which the mutagenic call is, setting by setting: (Test System: AMES SALMONELLA TYPHIMURIUM, Strain/Indicator: TA98(NR), Metabolic Activation: NONE, Method: STANDARD PLATE) “active; positive”; (Test System: AMES SALMONELLA TYPHIMURIUM, Strain/Indicator: TA98 (NR), Metabolic Activation: S-9, Method: STANDARD PLATE) “active; positive”; under setting [1], “active; positive”; (Test System: AMES SALMONELLA TYPHIMURIUM, Strain/Indicator: TA98, Metabolic Activation: S-9, Method: STANDARD PLATE) “active; positive”; (Test System: AMES SALMONELLA TYPHIMURIUM, Strain/Indicator: TA100 (NR), Metabolic Activation: NONE, Method: STANDARD PLATE) “inactive; negative”; (Test System: AMES SALMONELLA TYPHIMURIUM, Strain/Indicator: TA100(NR), Metabolic Activation: S-9, Method: STANDARD PLATE) “inactive; negative”. Also, the mutagenic call is, setting by setting: under setting [2], “active; positive”; (Test System: AMES SALMONELLA TYPHIMURIUM, Strain/Indicator: TA100, Metabolic Activation: S-9, Method: STANDARD PLATE) “active; positive”.
Take `Nc1cccc(N)n1`: the mutagenic call by setting is: under setting [3], “inactive; negative”; (Test System: AMES SALMONELLA TYPHIMURIUM, Strain/Indicator: TA98, Metabolic Activation: RAT, LIVER, S-9, PCB, Method: PREINCUBATION) “active; positive”; (Test System: AMES SALMONELLA TYPHIMURIUM, Strain/Indicator: TA98, Metabolic Activation: RAT, LIVER, S-9, PHENOBARBITAL AND BETA-NAPHTHOFLAVONE, Method: PREINCUBATION) “inactive; negative”; under setting [4], “inactive; negative”; (Test System: AMES SALMONELLA TYPHIMURIUM, Strain/Indicator: TA100, Metabolic Activation: RAT, LIVER, S-9, PCB, Method: PREINCUBATION) “inactive; negative”; (Test System: AMES SALMONELLA TYPHIMURIUM, Strain/Indicator: TA100, Metabolic Activation: RAT, LIVER, S-9, PHENOBARBITAL AND BETA-NAPHTHOFLAVONE, Method: PREINCUBATION) “inactive; negative”. Further, the mutagenic call (Test System: AMES SALMONELLA TYPHIMURIUM, Strain/Indicator: TA1535, Metabolic Activation: NONE, Method: PREINCUBATION) was “inactive; negative”; the mutagenic call (Test System: AMES SALMONELLA TYPHIMURIUM, Strain/Indicator: TA1535, Metabolic Activation: RAT, LIVER, S-9, PHENOBARBITAL AND BETA-NAPHTHOFLAVONE, Method: PREINCUBATION) was “inactive; negative”; the mutagenic call (Test System: AMES SALMONELLA TYPHIMURIUM, Strain/Indicator: TA1537, Metabolic Activation: RAT, LIVER, S-9, PHENOBARBITAL AND BETA-NAPHTHOFLAVONE, Method: PREINCUBATION) is “active; positive”; the mutagenic call (Test System: E. COLI, Strain/Indicator: WP2UVRA, Metabolic Activation: NONE, Method: PREINCUBATION) is “inactive; negative”; the mutagenic call (Test System: E. COLI, Strain/Indicator: WP2UVRA, Metabolic Activation: RAT, LIVER, S-9, PHENOBARBITAL AND BETA-NAPHTHOFLAVONE, Method: PREINCUBATION) was “inactive; negative”.
Regarding `Nc1ccc(Cc2ccc(NO)c(Cl)c2)cc1Cl`, the mutagenic call is “active; positive” under setting [3] and “active; positive” under setting [4].
With `CCc1cccc(CC)c1NC(=O)CO`, the mutagenic call is “inactive; negative” under setting [3]; “inactive; negative” (Test System: AMES SALMONELLA TYPHIMURIUM, Strain/Indicator: TA98, Metabolic Activation: RAT, LIVER, MICROSOMES, PHENOBARBITAL, Method: PREINCUBATION); “inactive; negative” under setting [4]; “active; positive” (Test System: AMES SALMONELLA TYPHIMURIUM, Strain/Indicator: TA100, Metabolic Activation: RAT, LIVER, MICROSOMES, PHENOBARBITAL, Method: PREINCUBATION).
Take `NC[C@H]1CCCN1.O=C([O-])C1(C(=O)[O-])CCC1.[Pt+2]`: the mutagenic call under setting [1] was “inactive; negative”; the mutagenic call (Test System: AMES SALMONELLA TYPHIMURIUM, Strain/Indicator: TA98, Metabolic Activation: RAT, LIVER, S-9, PHENOBARBITAL AND 5,6-BENZOFLAVONE, Method: STANDARD PLATE) is “inactive; negative”; the mutagenic call under setting [2] was “inactive; negative”; the mutagenic call (Test System: AMES SALMONELLA TYPHIMURIUM, Strain/Indicator: TA100, Metabolic Activation: RAT, LIVER, S-9, PHENOBARBITAL AND 5,6-BENZOFLAVONE, Method: STANDARD PLATE) was “inactive; negative”; the mutagenic call (Test System: AMES SALMONELLA TYPHIMURIUM, Strain/Indicator: TA1535, Metabolic Activation: NONE, Method: STANDARD PLATE) is “inactive; negative”; the mutagenic call (Test System: AMES SALMONELLA TYPHIMURIUM, Strain/Indicator: TA1535, Metabolic Activation: RAT, LIVER, S-9, PHENOBARBITAL AND 5,6-BENZOFLAVONE, Method: STANDARD PLATE) is “inactive; negative”. Also, the mutagenic call reads like this: (Test System: AMES SALMONELLA TYPHIMURIUM, Strain/Indicator: TA1537, Metabolic Activation: NONE, Method: STANDARD PLATE) “inactive; negative”; (Test System: AMES SALMONELLA TYPHIMURIUM, Strain/Indicator: TA1537, Metabolic Activation: RAT, LIVER, S-9, PHENOBARBITAL AND 5,6-BENZOFLAVONE, Method: STANDARD PLATE) “inactive; negative”; (Test System: E. COLI, Strain/Indicator: WP2 UVRA, Metabolic Activation: NONE, Method: STANDARD PLATE) “inactive; negative”; (Test System: E. COLI, Strain/Indicator: WP2 UVRA, Metabolic Activation: RAT, LIVER, S-9, PHENOBARBITAL AND 5,6-BENZOFLAVONE, Method: STANDARD PLATE) “inactive; negative”.

For the origin of these results see PubChem BioAssay AID1259407 (Chemical Carcinogenesis Research Information System (CCRIS), 2018).
